Results as given in US20180201592A1, “2-AMINO-1,3,4-THIADIAZINE AND 2-AMINO-1,3,4-OXADIAZINE BASED ANTIFUNGAL AGENTS” (F2G Limited, priority 2015, published 2018).
Values after ≈ are worked out from the molar mass of the structure shown. Read-outs that look alike come from different tables or passages of the source.

Tests used:
Aspergillus fumigatus = assay: Minimum inhibitory concentration, YAG medium; type: cell-based; details: banded MIC grade
Procedure, shortened: (§1)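 Spores from 5-day Sabouraud agar cultures were suspended in YAG medium (1% glucose, 1% ammonium chloride, 0.5% yeast extract) at 1-2×10^4 cfu/mL and exposed to doubling dilutions of compound (50-0.05 mg/L) for 24 hrs at 35° C. MIC was the lowest concentration giving >70% growth inhibition by OD485 versus drug-free control.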

A. fumigatus 210 [1] = assay: Minimum inhibitory concentration, YAG medium; type: cell-based, Aspergillus fumigatus; details: banded MIC grade
Procedure, shortened: as §1

A. terreus 49 [2] = assay: Minimum inhibitory concentration, YAG medium; type: cell-based, Aspergillus terreus; details: banded MIC grade
Procedure, shortened: (§2)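 Compound in DMSO (5 mg/mL stock), diluted in water and doubling-diluted; Aspergillus spores grown in YAG medium 24 hrs at 35° C. Growth read as optical density at 485 nm; MIC given in mg/L.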

Aspergillus flavus = assay: Minimum inhibitory concentration, YAG medium; type: cell-based; details: banded MIC grade
Procedure, shortened: as §2

Aspergillus niger = assay: Minimum inhibitory concentration, YAG medium; type: cell-based; details: banded MIC grade
Procedure, shortened: as §2

Aspergillus terreus = assay: Minimum inhibitory concentration, YAG medium; type: cell-based; details: banded MIC grade
Procedure, shortened: as §2

A. flavus = assay: Minimum inhibitory concentration, RPMI medium; type: cell-based; details: banded MIC grade
Procedure, shortened: (§3)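 Broth microdilution in RPMI 1640 medium using doubling dilutions in water prepared from a 5 mg/mL DMSO stock. Plates incubated 24-48 hrs at 35° C; growth read as optical density at 485 nm.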

A. niger = assay: Minimum inhibitory concentration, RPMI medium; type: cell-based; details: banded MIC grade
Procedure, shortened: as §3

A. terreus 49 [3] = assay: Minimum inhibitory concentration, RPMI medium; type: cell-based; details: banded MIC grade
Procedure, shortened: as §3

A. terreus = assay: Minimum inhibitory concentration, RPMI medium; type: cell-based; details: banded MIC grade
Procedure, shortened: as §3

C. albicans = assay: Minimum inhibitory concentration, RPMI medium; type: cell-based; details: banded MIC grade; for MIC: Candida albicans, RPMI media
Procedure, shortened: as §3

C. glabrata = assay: Minimum inhibitory concentration, RPMI medium; type: cell-based; details: banded MIC grade
Procedure, shortened: as §3

C. krusei = assay: Minimum inhibitory concentration, RPMI medium; type: cell-based; details: banded MIC grade
Procedure, shortened: as §3

C. parapsilosis = assay: Minimum inhibitory concentration, RPMI medium; type: cell-based; details: banded MIC grade; for MIC: Lodderomyces parapsilosis, RPMI media
Procedure, shortened: as §3

C. tropicalis = assay: Minimum inhibitory concentration, RPMI medium; type: cell-based; details: banded MIC grade
Procedure, shortened: as §3

A. fumigatus 210 [4] = assay: Minimum inhibitory concentration, RPMI medium; type: cell-based; details: banded MIC grade
Description: (§4) Between 1 and 5 mgs of compound were accurately weighed out into a sterile Eppendorf tube. The compound was dissolved in DMSO to give a solution containing 5 mg/mL. Tubes were stored at −20° C. until required.
(§5) On the day of testing thawed solutions were vortex mixed to ensure homogeneity. 30 μL of solution was removed and added to 570 μL of sterile water in a separate sterile Eppendorf. The thoroughly mixed solution was used to prepare a series of doubling dilutions in water, in a deep well plate. Thirteen replicate plates were prepared using a Minitrak by aspirating 20 μL from each well into eleven clear polystyrene 96 well plates.
(§6) Assays were also performed in RPMI medium (Roswell Park Memorial Media 1640). To perform MIC tests in this medium, dilutions of compounds are prepared in microtitre plates as described above. Fungal strains to be tested are grown and harvested in an identical manner to that described above, and each organism suspension was diluted in RPMI medium, typically containing 2% glucose and 0.135 M MOPS buffer (pH 7.0) to 0.5-2×10^4cfu/mL, rather than in YAG medium. 80 μL of an organism suspension was added to each well of the plate containing drug dilutions.
(§7) This produced MIC plates with a drug range 50-0.05 mg/L and organism inocula of 1-2×10^4 cfu/mL. All plates were incubated for 24-48 hrs at 35° C. Growth was assessed by monitoring the optical density at 485 nm for each well. The MIC of a compound is the lowest drug concentration that inhibits growth of an organism by >80% compared with a drug free control. The following organisms were tested: C. albicans, C. parapsilosis, C. tropicalis, C. glabrata, C. krusei, A. niger, A. fumigatus, A. terreus, A. flavus, A. terreus 49, and A. fumigatus 210.

A. fumigatus = assay: Minimum inhibitory concentration, RPMI medium; type: cell-based; details: banded MIC grade
Description: as §4, §5, §6, §7

SMILES | MIC grade, A. FUMIGATUS, YAG media (Aspergillus fumigatus) | MIC grade, A. FUMIGATUS 210, YAG media (A. fumigatus 210 [1]) | MIC grade, A. TERREUS 49, YAG media (A. terreus 49 [2]) | MIC grade, A. FLAVUS, YAG media (Aspergillus flavus) | MIC grade, A. NIGER, YAG media (Aspergillus niger) | MIC grade, A. TERREUS, YAG media (Aspergillus terreus) | MIC grade, A. FLAVUS, RPMI media (A. flavus) | MIC grade, A. NIGER, RPMI media (A. niger) | MIC grade, A. TERREUS 49, RPMI media (A. terreus 49 [3]) | MIC grade, A. TERREUS, RPMI media (A. terreus) | MIC grade, C. ALBICANS, RPMI media (C. albicans) | MIC grade, C. GLABRATA, RPMI media (C. glabrata) | MIC grade, C. KRUSEI, RPMI media (C. krusei) | MIC grade, C. PARAPSILOSIS, RPMI media (C. parapsilosis) | MIC grade, C. TROPICALIS, RPMI media (C. tropicalis) | MIC grade, A. FUMIGATUS 210, RPMI media (A. fumigatus 210 [4]) | MIC grade, A. FUMIGATUS, RPMI media (A. fumigatus) | other results
NC1=NN=C(CCOCCOc2ccccc2)CS1 | 4 (4: <0.2 mg/L) | 4 (4: <0.2 mg/L) | 4 (4: <0.2 mg/L) | 4 (4: <0.2 mg/L) | 4 (4: <0.2 mg/L) | 4 (4: <0.2 mg/L) | 3 (3: 1-5 mg/L) | 3 (3: 1-5 mg/L) | 4 (4: <1 mg/L) | 4 (4: <1 mg/L) | 3 (3: 1-5 mg/L) | 2 (2: 5-20 mg/L) | 4 (4: <1 mg/L) | 4 (4: <1 mg/L) | 3 (3: 1-5 mg/L) | 3 (3: 1-5 mg/L) | 3 (3: 1-5 mg/L) | –
NC1=NN=C(CCCCOCc2ccccc2CCc2ccccc2)CS1 | 1 (1: ≥5 mg/L) | 1 (1: ≥5 mg/L) | 1 (1: ≥5 mg/L) | 2 (2: 1-5 mg/L) | 1 (1: ≥5 mg/L) | 2 (2: 1-5 mg/L) | 1 (1: ≥20 mg/L) | 1 (1: ≥20 mg/L) | 2 (2: 5-20 mg/L) | 2 (2: 5-20 mg/L) | 2 (2: 5-20 mg/L) | 1 (1: ≥20 mg/L) | 2 (2: 5-20 mg/L) | 2 (2: 5-20 mg/L) | 2 (2: 5-20 mg/L) | 1 (1: ≥20 mg/L) | 1 (1: ≥20 mg/L) | –
NC1=NN=C(CCCCOCc2ccccc2C(F)(F)F)CS1 | 3 (3: 0.2-1 mg/L) | 2 (2: 1-5 mg/L) | 2 (2: 1-5 mg/L) | 2 (2: 1-5 mg/L) | 3 (3: 0.2-1 mg/L) | 2 (2: 1-5 mg/L) | 1 (1: ≥20 mg/L) | 1 (1: ≥20 mg/L) | 1 (1: ≥20 mg/L) | 1 (1: ≥20 mg/L) | 2 (2: 5-20 mg/L) | 1 (1: ≥20 mg/L) | 2 (2: 5-20 mg/L) | 1 (1: ≥20 mg/L) | 2 (2: 5-20 mg/L) | 1 (1: ≥20 mg/L) | 1 (1: ≥20 mg/L) | –
NC1=NN=C(CCCCOCc2ccccc2C2CC2)CS1 | 2 (2: 1-5 mg/L) | 2 (2: 1-5 mg/L) | 2 (2: 1-5 mg/L) | 3 (3: 0.2-1 mg/L) | 2 (2: 1-5 mg/L) | 2 (2: 1-5 mg/L) | 1 (1: ≥20 mg/L) | 1 (1: ≥20 mg/L) | 2 (2: 5-20 mg/L) | 2 (2: 5-20 mg/L) | 3 (3: 1-5 mg/L) | 2 (2: 5-20 mg/L) | 2 (2: 5-20 mg/L) | 3 (3: 1-5 mg/L) | 3 (3: 1-5 mg/L) | 1 (1: ≥20 mg/L) | 2 (2: 5-20 mg/L) | –
NC1=NN=C(CCCCOCc2cc(Cl)cc(Cl)c2)CS1 | 3 (3: 0.2-1 mg/L) | 2 (2: 1-5 mg/L) | 3 (3: 0.2-1 mg/L) | 4 (4: <0.2 mg/L) | 3 (3: 0.2-1 mg/L) | 3 (3: 0.2-1 mg/L) | 2 (2: 5-20 mg/L) | 2 (2: 5-20 mg/L) | 2 (2: 5-20 mg/L) | 2 (2: 5-20 mg/L) | 2 (2: 5-20 mg/L) | 2 (2: 5-20 mg/L) | 2 (2: 5-20 mg/L) | 3 (3: 1-5 mg/L) | 2 (2: 5-20 mg/L) | 1 (1: ≥20 mg/L) | 2 (2: 5-20 mg/L) | –
NC1=NN=C(CCCCOCc2ccc(Cl)cc2F)CS1 | 4 (4: <0.2 mg/L) | 4 (4: <0.2 mg/L) | 4 (4: <0.2 mg/L) | 4 (4: <0.2 mg/L) | 3 (3: 0.2-1 mg/L) | 4 (4: <0.2 mg/L) | 4 (4: <1 mg/L) | 3 (3: 1-5 mg/L) | 3 (3: 1-5 mg/L) | 3 (3: 1-5 mg/L) | 4 (4: <1 mg/L) | 3 (3: 1-5 mg/L) | 4 (4: <1 mg/L) | 4 (4: <1 mg/L) | 4 (4: <1 mg/L) | 2 (2: 5-20 mg/L) | 2 (2: 5-20 mg/L) | –
CCCCCCCC1=CSC(N)=NN1 [5-heptyl-4~{H}-1,3,4-thiadiazin-2-amine] | 4 (4: <0.2 mg/L) | 4 (4: <0.2 mg/L) | 3 (3: 0.2-1 mg/L) | 4 (4: <0.2 mg/L) | 4 (4: <0.2 mg/L) | 4 (4: <0.2 mg/L) | – | – | – | – | 3 (3: 1-5 mg/L) | – | – | 3 (3: 1-5 mg/L) | 3 (3: 1-5 mg/L) | – | – | –
NC1=NN=C(c2ccccc2)CS1 [5-phenyl-6~{H}-1,3,4-thiadiazin-2-amine] | 3 (3: 0.2-1 mg/L) | 3 (3: 0.2-1 mg/L) | 3 (3: 0.2-1 mg/L) | 3 (3: 0.2-1 mg/L) | 3 (3: 0.2-1 mg/L) | 3 (3: 0.2-1 mg/L) | – | – | – | – | 1 (1: ≥20 mg/L) | – | – | 1 (1: ≥20 mg/L) | 1 (1: ≥20 mg/L) | – | – | –
CCOC(=O)c1ccc(C2=CSC(N)=NN2C)cc1 [ethyl 4-(2-amino-4-methyl-1,3,4-thiadiazin-5-yl)benzoate] | – | – | – | – | – | – | – | – | – | – | – | – | – | – | – | – | – | MIC (Aspergillus fumigatus; Aspergillus fumigatus, YAG media): < 0.2 µg/mL; MIC (A. fumigatus 210 [1]; Aspergillus fumigatus, 210, YAG media): < 0.2 µg/mL; MIC (A. terreus 49 [2]; Aspergillus terreus, 49, YAG media): 0.2 to 1 µg/mL (≈ 0.721 to 3.61 µM); MIC (Aspergillus flavus; Aspergillus flavus, YAG media): < 0.2 µg/mL; MIC (Aspergillus niger; Aspergillus niger, YAG media): 0.2 to 1 µg/mL (≈ 0.721 to 3.61 µM); MIC (Aspergillus terreus; Aspergillus terreus, YAG media): < 0.2 µg/mL; MIC (C. albicans; read-out: MIC grade C. ALBICANS): < 1 µg/mL; MIC (C. albicans; read-out: MIC grade, C. ALBICANS, RPMI media): 1 to 5 µg/mL (≈ 3.61 to 18 µM); MIC (C. parapsilosis; read-out: MIC grade C. PARAPSILOSIS): < 1 µg/mL; MIC (C. parapsilosis; read-out: MIC grade, C. PARAPSILOSIS, RPMI media): < 1 µg/mL; MIC (C. tropicalis; Candida tropicalis, RPMI media): 1 to 5 µg/mL (≈ 3.61 to 18 µM)
